The source made the active and inactive calls. The rule behind the calls is not given here. Starred links: 1 amine or outer side, 2 acyl side, 3 side chain; linkers in the order of their positions; H or OH if unused. Non-standard residues stand in square brackets, D forms with d. Residues, ends and D or L forms follow the SMILES beside them. X2 = N/C(=N\CC(F)(F)F)NCCC[C@H](N[*:1])C(=O)[*:2]; X3 = N/C(=N\Cc1ccccc1)NCCC[C@H](N[*:1])C(=O)[*:2]; X4 = NC(NCCC[C@H](N[*:1])C(=O)[*:2])=[N+]1CCCC1; X5 = N/C(=N\C1CC1)NCCC[C@H](N[*:1])C(=O)[*:2]; X1 = N/C(=N\O)NCCC[C@H](N[*:1])C(=O)[*:2] Bounds are passed on as bounds.

Test [1] addresses T1, Protein arginine N-methyltransferase 6 (Homo sapiens, UniProt Q96LA8). Briefly: Activity at PRMT6 (unknown origin) using [methyl-14C]AdoMet at 0.25 to 200 uM after 60 to 120 mins by tricine gel electrophoresis.
Target sequence in this assay (Q96LA8 whole entry, looked up): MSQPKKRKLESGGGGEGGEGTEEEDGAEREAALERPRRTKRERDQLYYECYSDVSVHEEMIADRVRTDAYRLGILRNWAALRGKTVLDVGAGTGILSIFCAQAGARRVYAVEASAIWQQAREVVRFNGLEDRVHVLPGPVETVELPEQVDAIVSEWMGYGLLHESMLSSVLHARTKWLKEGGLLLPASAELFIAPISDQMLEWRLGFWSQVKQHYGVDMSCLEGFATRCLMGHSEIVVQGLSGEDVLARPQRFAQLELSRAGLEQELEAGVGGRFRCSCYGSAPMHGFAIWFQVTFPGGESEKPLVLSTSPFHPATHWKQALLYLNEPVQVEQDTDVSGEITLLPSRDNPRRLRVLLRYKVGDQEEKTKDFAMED
The target in test [2] is T2, Protein arginine N-methyltransferase 1 (Homo sapiens, UniProt Q99873). Briefly: Activity at PRMT1 (unknown origin) using [methyl-14C]AdoMet at 0.25 to 200 uM after 60 to 120 mins by tricine gel electrophoresis.
Target sequence in this assay (Q99873 whole entry, looked up): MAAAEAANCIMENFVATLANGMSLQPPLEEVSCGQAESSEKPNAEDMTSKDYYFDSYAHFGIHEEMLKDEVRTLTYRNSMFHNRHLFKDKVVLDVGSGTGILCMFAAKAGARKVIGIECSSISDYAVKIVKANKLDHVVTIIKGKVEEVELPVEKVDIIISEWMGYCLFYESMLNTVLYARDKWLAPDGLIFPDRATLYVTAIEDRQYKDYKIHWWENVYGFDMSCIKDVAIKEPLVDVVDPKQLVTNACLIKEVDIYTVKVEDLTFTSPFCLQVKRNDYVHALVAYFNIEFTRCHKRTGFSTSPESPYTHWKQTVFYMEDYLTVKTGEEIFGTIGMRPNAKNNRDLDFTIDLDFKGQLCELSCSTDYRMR
Test [3] addresses T2, Protein arginine N-methyltransferase 1. Nature of the test: Inhibition of PRMT1 (unknown origin) using AdoMet by Michaelis-Menten equation analysis.
Target sequence in this assay (Q99873 whole entry): as the sequence (Q99873 whole entry, looked up) above
In test [4] the target is T1, Protein arginine N-methyltransferase 6. Briefly: Inhibition of PRMT6 (unknown origin) using AdoMet by Michaelis-Menten equation analysis.
Target sequence in this assay (Q96LA8 whole entry): as the sequence (Q96LA8 whole entry, looked up) above
In test [5] the target is T3, Histone-arginine methyltransferase CARM1 (Homo sapiens) (UniProt Q86X55).
T3 sequence (whole entry): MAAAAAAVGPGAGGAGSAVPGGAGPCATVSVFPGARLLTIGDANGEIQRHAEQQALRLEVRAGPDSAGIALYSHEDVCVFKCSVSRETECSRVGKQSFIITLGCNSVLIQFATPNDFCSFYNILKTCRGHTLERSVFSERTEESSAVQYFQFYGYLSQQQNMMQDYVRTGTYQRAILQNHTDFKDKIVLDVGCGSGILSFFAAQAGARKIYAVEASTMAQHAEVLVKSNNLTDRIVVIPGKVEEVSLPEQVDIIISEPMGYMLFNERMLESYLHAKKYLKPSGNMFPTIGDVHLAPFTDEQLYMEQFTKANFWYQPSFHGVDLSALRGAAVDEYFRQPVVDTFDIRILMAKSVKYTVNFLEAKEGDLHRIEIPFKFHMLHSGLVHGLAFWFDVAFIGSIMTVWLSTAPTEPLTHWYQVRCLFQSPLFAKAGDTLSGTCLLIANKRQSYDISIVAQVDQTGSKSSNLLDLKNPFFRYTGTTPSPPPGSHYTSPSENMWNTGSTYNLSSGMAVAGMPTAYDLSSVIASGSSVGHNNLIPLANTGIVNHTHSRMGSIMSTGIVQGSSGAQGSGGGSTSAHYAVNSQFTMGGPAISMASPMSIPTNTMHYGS
Nature of the test: Activity at PRMT4 (unknown origin) using [methyl-14C]AdoMet at 0.25 to 200 uM after 60 to 120 mins by tricine gel electrophoresis.

Test [6] is filed under the species Homo sapiens. Nature of the test: Ratio of PRMT4 (unknown origin) to PRMT6 (unknown origin).
The target in test [7] is T1, Protein arginine N-methyltransferase 6. Briefly: Activity at PRMT6 (unknown origin) using AdoMet assessed as formation of MMA and aDMA at 0.25 to 200 uM after 60 to 120 mins by LC-MS/MS analysis.
Target sequence in this assay (Q96LA8 whole entry, looked up): as the sequence (Q96LA8 whole entry, looked up) above
For test [8], the target named is T3, Histone-arginine methyltransferase CARM1 (Homo sapiens). Nature of the test: Activity at PRMT4 (unknown origin) using AdoMet assessed as formation of MMA and aDMA at 0.25 to 200 uM after 60 to 120 mins by LC-MS/MS analysis.
The species named for test [9] is Homo sapiens. Nature of the test: Ratio of PRMT4 (unknown origin) to PRMT1 (unknown origin).
The target in test [10] is T2, Protein arginine N-methyltransferase 1. Nature of the test: Activity at PRMT1 (unknown origin) using AdoMet assessed as formation of MMA and aDMA at 0.25 to 200 uM after 60 to 120 mins by LC-MS/MS analysis.
Target sequence in this assay (Q99873 whole entry, looked up): as the sequence (Q99873 whole entry, looked up) above
For test [11], the target named is T1, Protein arginine N-methyltransferase 6. Nature of the test: Activity at PRMT6 (unknown origin) assessed as methylation of substituted arginines by LC-MS/MS analysis.
Target sequence in this assay (Q96LA8 whole entry, looked up): as the sequence (Q96LA8 whole entry, looked up) above
Test [12] has as its target T2, Protein arginine N-methyltransferase 1. Nature of the test: Activity at PRMT1 (unknown origin) assessed as methylation of substituted arginines by LC-MS/MS analysis.
Target sequence in this assay (Q99873 whole entry, looked up): as the sequence (Q99873 whole entry, looked up) above
For test [13] the target is unchanged. Nature of the test: Activity at PRMT1 (unknown origin) at 100 uM using => 5 uM of AdoMet.
Target sequence in this assay (Q99873 whole entry, looked up): as above
The target of test [14] is T1, Protein arginine N-methyltransferase 6. Nature of the test: Activity at PRMT6 (unknown origin) at 100 uM using => 5 uM of AdoMet.
Target sequence in this assay (Q96LA8 whole entry, looked up): as the sequence (Q96LA8 whole entry, looked up) above
Test [15] has as its target T2, Protein arginine N-methyltransferase 1. Briefly: Activity at 50 to 800 nM of PRMT1 (unknown origin) up to 200 uM.
Target sequence in this assay (Q99873 whole entry, looked up): as the sequence (Q99873 whole entry, looked up) above
In test [16] the target is T1, Protein arginine N-methyltransferase 6. Nature of the test: Activity at 400 nM of PRMT6 (unknown origin) using histone H3 tail peptide.
Target sequence in this assay (Q96LA8 whole entry, looked up): as the sequence (Q96LA8 whole entry, looked up) above
The target is the same in test [17]. Briefly: Activity at 50 to 100 nM of PRMT6 (unknown origin) up to 200 uM.
Target sequence in this assay (Q96LA8 whole entry, looked up): as above
Test [18] has as its target T2, Protein arginine N-methyltransferase 1. Briefly: Inhibition of 50 nM of PRMT1 (unknown origin) up to 200 uM.
Target sequence in this assay (Q99873 whole entry, looked up): as the sequence (Q99873 whole entry, looked up) above
The target in test [19] is T1, Protein arginine N-methyltransferase 6. Nature of the test: Activity at 50 to 800 nM of PRMT6 (unknown origin) assessed as increase of Vmax up to 200 uM relative to control.
Test [20] has the same target. Briefly: Activity at 100 to 400 nM of PRMT6 (unknown origin) assessed as increase of Vmax up to 200 uM relative to control.
Test [21] shares this target. Nature of the test: Activity at 50 to 800 nM of PRMT6 (unknown origin) assessed as increase of Km up to 200 uM relative to control.
Test [22] deals with T2, Protein arginine N-methyltransferase 1. Nature of the test: Inhibition of 50 to 800 nM of PRMT1 (unknown origin) up to 200 uM.
For test [23] the target is unchanged. Nature of the test: Activity at 50 to 100 nM of PRMT1 (unknown origin) up to 200 uM.
Test [24] shares this target. Briefly: Activity at 800 nM of PRMT1 (unknown origin) at 100 to 200 uM.
Test [25] has as its target T1, Protein arginine N-methyltransferase 6. Nature of the test: Inhibition of 50 to 100 nM of PRMT6 (unknown origin) up to 200 uM.

Broadly, the Ki is the equilibrium dissociation constant of an inhibitor or competing ligand from its target. With `N=C(N)NCCC[C@H](NC(=O)CN)C(=O)N[C@@H](CCCCN)C(=O)N[C@@H](CCCCN)C(=O)N[C@@H](CCCN/C(N)=N/C1CC1)C(=O)N[C@@H](CCCNC(=N)N)C(=O)N[C@@H](CCC(N)=O)C(=O)N[C@@H](CCCNC(=N)N)C(=O)N[C@@H](CCCNC(=N)N)C(=O)N[C@@H](CCCNC(=N)N)C(=O)N1CCC[C@H]1C(=O)N1CCC[C@H]1C(=O)N[C@@H](CCC(N)=O)C(=O)O` (H-GRKK[X5]RQRRRPPQ-OH), the result in [1], in test [2] and in [5] was Active. In addition, the inhibition constant (Ki) in test [3] is 2.9 µM; in [4], above 100 µM.
As for `N=C(N)NCCC[C@H](NC(=O)CN)C(=O)N[C@@H](CCCCN)C(=O)N[C@@H](CCCCN)C(=O)N[C@@H](CCCN/C(N)=N/O)C(=O)N[C@@H](CCCNC(=N)N)C(=O)N[C@@H](CCC(N)=O)C(=O)N[C@@H](CCCNC(=N)N)C(=O)N[C@@H](CCCNC(=N)N)C(=O)N[C@@H](CCCNC(=N)N)C(=O)N1CCC[C@H]1C(=O)N1CCC[C@H]1C(=O)N[C@@H](CCC(N)=O)C(=O)O` (H-GRKK[X1]RQRRRPPQ-OH), the Selectivity ratio in the test filed under Homo sapiens [6] and in the test filed under Homo sapiens [9] was 10 each time. Besides, the outcome in test [1], in test [2], in [7], in [5], in [8] and in test [10] was Active. Moreover, the values for the inhibition constant Ki in test [3] and in test [4] were 2.68 µM and 63 µM, respectively.
On to `N=C(N)NCCC[C@H](NC(=O)CN)C(=O)N[C@@H](CCCCN)C(=O)N[C@@H](CCCCN)C(=O)N[C@@H](CCCNC(N)=[N+]1CCCC1)C(=O)N[C@@H](CCCNC(=N)N)C(=O)N[C@@H](CCC(N)=O)C(=O)N[C@@H](CCCNC(=N)N)C(=O)N[C@@H](CCCNC(=N)N)C(=O)N[C@@H](CCCNC(=N)N)C(=O)N1CCC[C@H]1C(=O)N1CCC[C@H]1C(=O)N[C@@H](CCC(N)=O)C(=O)O` (H-GRKK[X4]RQRRRPPQ-OH), for which the outcome in test [1], in [2] and in test [5] was Active. In addition, the outcome in test [11] and in test [12] was inactive. Moreover, the inhibitory constant (Ki) is 7.62 µM in test [3] and 77.3 µM in test [4].
As to `CC/N=C(\N)NCCC[C@H](NC(=O)[C@H](CCCCN)NC(=O)[C@H](CCCCN)NC(=O)[C@H](CCCNC(=N)N)NC(=O)CN)C(=O)N[C@@H](CCCNC(=N)N)C(=O)N[C@@H](CCC(N)=O)C(=O)N[C@@H](CCCNC(=N)N)C(=O)N[C@@H](CCCNC(=N)N)C(=O)N[C@@H](CCCNC(=N)N)C(=O)N1CCC[C@H]1C(=O)N1CCC[C@H]1C(=O)N[C@@H](CCC(N)=O)C(=O)O`, the Selectivity ratio in the test listed under Homo sapiens [6] and in the test listed under Homo sapiens [9] was 10 in each case. For the same molecule, the result in [1], in [2], in test [7], in test [5], in test [8] and in [10] was Active. Further, the outcome in [11] and in test [12] was inactive. For the same molecule, the values for the inhibition constant Ki in test [3] and in test [4] were 4.29 µM and 31.3 µM, respectively.
On to H-GRKKARQRRRPPQ-OH, for which the result in test [13], in test [1], in [14], in test [2], in [7] and in test [5] was Active. Also, the outcome in test [8] and in [10] was Active. Moreover, the Selectivity ratio in the test filed under Homo sapiens [6] and in the test filed under Homo sapiens [9] was 10 each time. Also, the outcome in [11] and in test [12] was inactive. Further, the Ki in test [3] came out at 7.6 µM; in test [4], 35.9 µM.
Consider `N=C(N)NCCC[C@H](NC(=O)CN)C(=O)N[C@@H](CCCCN)C(=O)N[C@@H](CCCCN)C(=O)N[C@@H](CCCN/C(N)=N/CC(F)(F)F)C(=O)N[C@@H](CCCNC(=N)N)C(=O)N[C@@H](CCC(N)=O)C(=O)N[C@@H](CCCNC(=N)N)C(=O)N[C@@H](CCCNC(=N)N)C(=O)N[C@@H](CCCNC(=N)N)C(=O)N1CCC[C@H]1C(=O)N1CCC[C@H]1C(=O)N[C@@H](CCC(N)=O)C(=O)O` (H-GRKK[X2]RQRRRPPQ-OH), for which the result in test [1], in test [2] and in test [5] was Active. Moreover, the outcome in test [11] and in test [12] was inactive. Besides, the results for the Ki in [3] and in [4] were 2.98 µM and 43.3 µM, respectively.
On to `N=C(N)NCCC[C@H](NC(=O)CN)C(=O)N[C@@H](CCCCN)C(=O)N[C@@H](CCCCN)C(=O)N[C@@H](CCCNC(=N)N)C(=O)N[C@@H](CCCNC(=N)N)C(=O)N[C@@H](CCC(N)=O)C(=O)N[C@@H](CCCNC(=N)N)C(=O)N[C@@H](CCCNC(=N)N)C(=O)N[C@@H](CCCNC(=N)N)C(=O)N1CCC[C@H]1C(=O)N1CCC[C@H]1C(=O)N[C@@H](CCC(N)=O)C(=O)O`, for which the result in test [15], in test [1], in test [16], in test [17], in test [2] and in test [20] was Active. For the same molecule, the result in [7], in test [5], in [8], in test [10], in [23] and in [24] was Active. Besides, the Selectivity ratio in the test filed under Homo sapiens [6] and in the test listed under Homo sapiens [9] was 10 in each case. The inhibition result in [18], in test [22] and in test [25] was “inactive” in each case. For the same molecule, the fold change (FC) came out at 9 in [19] and 87 in [21]. Also, the Ki in test [3] is 4.79 µM; in test [4], 35.1 µM.
For the molecule `N=C(N)NCCC[C@H](NC(=O)CN)C(=O)N[C@@H](CCCCN)C(=O)N[C@@H](CCCCN)C(=O)N[C@@H](CCCN/C(N)=N/Cc1ccccc1)C(=O)N[C@@H](CCCNC(=N)N)C(=O)N[C@@H](CCC(N)=O)C(=O)N[C@@H](CCCNC(=N)N)C(=O)N[C@@H](CCCNC(=N)N)C(=O)N[C@@H](CCCNC(=N)N)C(=O)N1CCC[C@H]1C(=O)N1CCC[C@H]1C(=O)N[C@@H](CCC(N)=O)C(=O)O` (H-GRKK[X3]RQRRRPPQ-OH), the outcome in test [1], in [2] and in [5] was Active. Moreover, the outcome in test [11] and in test [12] was inactive. Also, the inhibition constant (Ki) was found to be 2.68 µM in test [3] and 19.9 µM in [4].

The record behind these values is ChEMBL document CHEMBL3217521, “Analogues of the HIV-Tat peptide containing N-modified arginines as potent inhibitors of protein arginine N-methyltransferases” (Medchemcomm, 2012).
